Experimental data as given in patent US11040028B2, “Penicinotam derivative, preparation method and use thereof” (OCEAN UNIVERSITY OF CHINA, priority 2017, dated 2021).

Experiments:
Assay type in all cases: cell-based
BHK-21 cells = test: Anti-fibrosis activity test: inhibition of BHK-21 cell proliferation (CCK-8); settings: Mesocricetus auratus, BHK-21, 48 h
Summary of the method: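 BHK-21 cells seeded at 2×10^4 cells/mL, allowed to adhere 24 h at 37° C, 5% CO2, then exposed to compounds at graded concentrations in triplicate for 48 h. CCK-8 added for 2 h and absorbance read at 450 nm; inhibition rate taken as (1−Ai/Ao)×100% and IC50 fitted.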

[1] = tested on: human lung fibroblasts HFL1; test: Anti-fibrosis activity test: inhibition of proliferation of human lung fibroblasts HFL1 (CCK-8); settings: Homo sapiens, HFL1, 48 h
Summary of the method: (§1)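 Read-out: absorbance at 450 nm after 2 h with CCK-8, following 48 h of compound exposure of adhered cells (2×10^4 cells/mL, 24 h attachment, 37° C, 5% CO2). Proliferation inhibition was taken relative to the blank control, and IC50 values were calculated from it.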

[2] = tested on: human hepatic stellate cells LX-2; test: Anti-fibrosis activity test: inhibition of proliferation of human hepatic stellate cells LX-2 (CCK-8); settings: Homo sapiens, 48 h
Summary of the method: as §1

[3] = tested on: human fibrosarcoma cells HT-1080; test: Anti-fibrosis activity test: inhibition of proliferation of human fibrosarcoma cells HT-1080 (CCK-8); settings: Homo sapiens, HT-1080, 48 h
Summary of the method: as §1

[4] = tested on: human dermal fibroblasts CCC-ESF-1; test: Anti-fibrosis activity test: inhibition of proliferation of human dermal fibroblasts CCC-ESF-1 (CCK-8); settings: Fibroblast
Summary of the method: as §1

[5] = tested on: human embryonic lung fibroblast IMR-90; test: Anti-fibrosis activity test: inhibition of proliferation of human embryonic lung fibroblast IMR-90 (CCK-8)
Summary of the method: as §1

[6] = tested on: cardiac fibroblast RAT-iCell-C002; test: Anti-fibrosis activity test: inhibition of proliferation of cardiac fibroblast RAT-iCell-C002 (CCK-8); settings: Cardiac fibroblast, 48 h
Summary of the method: as §1

NF-κB = test: Immunological activity test: inhibition of NF-κB activity; settings: initial concentration of 30 μM; a/b isomers given as first/second symbol; read-out: IC50 (μM), inhibitory activity against NF-κB
Summary of the method: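 NF-κB inhibition was tested at an initial 30 μM compound concentration, with parthenolide as positive control, and IC50 values were determined from follow-up analysis.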

[7] = tested on: mouse macrophages (RAW264.7); test: Lipopolysaccharide-induced NO secretion in macrophages (Griess); settings: Mus musculus, RAW264.7, 24 h, RAW264.7, LPS 1 μg/ml, a/b isomers given as first/second symbol, read-out: IC50 (μM), inhibition of lipopolysaccharide-induced NO secretion in macrophages
Summary of the method: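 Absorbance at 548 nm after Griess reagent addition to culture supernatant gave NO content; inhibition rate was derived relative to blank control. Cells were mouse RAW264.7 macrophages exposed to compounds and 1 μg/ml LPS for 24 hours.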

[8] = CCK-8, 48 hours after administration
[9] = human lung fibroblasts HFL1, CCK-8, 48 hours
[10] = human hepatic stellate cells LX-2, CCK-8, 48 hours
[11] = human fibrosarcoma cells HT-1080, CCK-8, 48 hours
[12] = human dermal fibroblasts CCC-ESF-1, CCK-8, 48 hours
[13] = human embryonic lung fibroblast IMR-90, CCK-8, 48 hours
[14] = cardiac fibroblast RAT-iCell-C002, CCK-8, 48 hours
[15] = Homo sapiens, CCC-ESF-1 cells, 48 h, CCK-8
[16] = Homo sapiens, IMR-90 cells, 48 h, CCK-8

Row | SMILES | IC50 [3, 11] [mM] | IC50 (NF-κB) [µM] | IC50 [7] [µM] | IC50 ([3]; HT-1080 cells, 48 h, CCK-8) [mM] | IC50 (BHK-21 cells; [8]) [mM] | IC50 [1, 9] [mM] | IC50 [2, 10] [mM] | IC50 [4, 12] [mM] | IC50 [5, 13] [mM] | IC50 [6, 14] [mM] | IC50 (BHK-21 cells; 48 h, CCK-8) [mM] | IC50 ([1]; HFL1 cells, 48 h, CCK-8) [mM] | IC50 ([2]; LX-2, 48 h, LX-2 cells, CCK-8) [mM] | IC50 [4, 15] [mM] | IC50 [5, 16] [mM] | IC50 ([6]; RAT-iCell-C002 cells, CCK-8) [mM]
1 | COc1cccc2[nH]c3c(c(=O)c12)C(=O)n1cccc1-3 [Compound 473a, 8-Methoxy-9H-pyrrolizino[1,2-b]quinoline-9,10(4H)-dione] | 0.05 to 5 | 1 to 10 | 1 to 10 |  | 0.05 to 5 | 0.05 to 5 | 0.05 to 5 | 0.05 to 5 | 0.05 to 5 | < 0.05 |  |  |  |  |  | 
2 | CC(C)(O)Cn1c2c(c(=O)c3ccccc31)C(=O)n1cccc1-2 [Compound 660a, 4-(2-Hydroxy-2-methylpropyl)-9H-pyrrolizino[1,2-b]quinoline-9,10(4H)-dione] | 0.05 to 5 | 1 to 10 | 1 to 10 |  | 0.05 to 5 | 0.05 to 5 | 0.05 to 5 | 0.05 to 5 | 0.05 to 5 | 0.05 to 5 |  |  |  |  |  | 
3 | O=C1c2c(n(CCN3CCNCC3)c3ccccc3c2=O)-c2cccn21 [Compound 98a, 4-(2-(Piperazin-1-yl)ethyl)-9H-pyrrolizino[1,2-b]quinoline-9,10(4H)-dione] | 0.05 to 5 | 1 to 10 | 1 to 10 |  | < 0.05 | 0.05 to 5 | < 0.05 | < 0.05 | < 0.05 | 0.05 to 5 |  |  |  |  |  | 
4 | O=C1c2c(n(C(=O)c3ccco3)c3ccccc3c2=O)-c2cccn21 [Compound 95a, 4-(Furan-2-carbonyl)-9H-pyrrolizino[1,2-b]quinoline-9,10(4H)-dione] | < 0.05 | 1 to 10 | 1 to 10 |  | 0.05 to 5 | 0.05 to 5 | < 0.05 | 0.05 to 5 | < 0.05 | 0.05 to 5 |  |  |  |  |  | 
5 | CN(C)CCCn1c2c(c(=O)c3ccccc31)C(=O)n1cccc1-2 [Compound 658a, 4-(3-(Dimethylamino)propyl)-9H-pyrrolizino[1,2-b]quinoline-9,10(4H)-dione] | 0.05 to 5 | 0.001 to 0.1 | 1 to 10 |  | 0.05 to 5 | 0.05 to 5 | 0.05 to 5 | 0.05 to 5 | 0.05 to 5 | 0.05 to 5 |  |  |  |  |  | 
6 | Cc1cc(C)c2nc3c(c(O)c2c1)C(=O)n1cccc1-3 [Compound 750b, 9-hydroxy-5,7-dimethyl-10H-pyrrolizino[1,2-b]quinolin-10-one] |  | 1 to 10 | 1 to 10 | 0.05 to 5 |  |  |  |  |  |  | 0.05 to 5 | 0.05 to 5 | 0.05 to 5 | 0.05 to 5 | 0.05 to 5 | 0.05 to 5
7 | Cc1ccn2c1-c1c([nH]c3ccccc3c1=O)C2=O [Compound 797a, 1-Methyl-5H-pyrrolizino[2,1-b]quinoline-5,11(6H)-dione] |  | 1 to 10 | 1 to 10 | 0.05 to 5 |  |  |  |  |  |  | 0.05 to 5 | 0.05 to 5 | 0.05 to 5 | 0.05 to 5 | 0.05 to 5 | 0.05 to 5
8 | O=C1c2c(n(CCN3CCCCC3)c3ccccc3c2=O)-c2cccn21 [Compound 665a, 4-(2-(Piperidin-1-yl)ethyl)-9H-pyrrolizino[1,2-b]quinoline-9,10(4H)-dione] |  | 0.1 to 1 | 1 to 10 | 0.05 to 5 |  |  |  |  |  |  | 0.05 to 5 | 0.05 to 5 | < 0.05 | 0.05 to 5 | 0.05 to 5 | 0.05 to 5

The next lines start with results.

Row | IC50 [3, 11] [mM] | IC50 (NF-κB) [µM] | IC50 [7] [µM] | IC50 ([3]; HT-1080 cells, 48 h, CCK-8) [mM] | SMILES | IC50 (BHK-21 cells; [8]) [mM] | IC50 [1, 9] [mM] | IC50 [2, 10] [mM] | IC50 [4, 12] [mM] | IC50 [5, 13] [mM] | IC50 [6, 14] [mM] | IC50 (BHK-21 cells; 48 h, CCK-8) [mM] | IC50 ([1]; HFL1 cells, 48 h, CCK-8) [mM] | IC50 ([2]; LX-2, 48 h, LX-2 cells, CCK-8) [mM] | IC50 [4, 15] [mM] | IC50 [5, 16] [mM] | IC50 ([6]; RAT-iCell-C002 cells, CCK-8) [mM]
9 | 0.05 to 5 | 1 to 10 | 1 to 10 |  | O=C1c2c(nc3ccccc3c2OCc2ccccc2)-c2cccn21 [Compound 103b, 9-(benzyloxy)-10H-pyrrolizino[1,2-b]quinolin-10-one] | 0.05 to 5 | 0.05 to 5 | 0.05 to 5 | 0.05 to 5 | < 0.05 | 0.05 to 5 |  |  |  |  |  | 
10 | 0.05 to 5 | 1 to 10 | 1 to 10 |  | CS(=O)(=O)Oc1c2c(nc3ccccc13)-c1cccn1C2=O [Compound 650b, 10-oxo-10H-pyrrolizino[1,2-b]quinolin-9-yl methanesulfonate] | 0.05 to 5 | 0.05 to 5 | 0.05 to 5 | 0.05 to 5 | 0.05 to 5 | 0.05 to 5 |  |  |  |  |  | 
11 | 0.05 to 5 | 1 to 10 | 1 to 10 |  | COc1cc(COc2c3c(nc4ccccc24)-c2cccn2C3=O)cc(OC)c1 [Compound 580b, 9-((3,5-dimethoxybenzyl)oxy)-10H-pyrrolizino[1,2-b]quinolin-10-one] | 0.05 to 5 | 0.05 to 5 | 0.05 to 5 | 0.05 to 5 | 0.05 to 5 | 0.05 to 5 |  |  |  |  |  | 
12 | 0.05 to 5 | 10 to 50 | 1 to 10 |  | N#Cc1ccc2c(O)c3c(nc2c1)-c1cccn1C3=O [Compound 512b, 9-hydroxy-10-oxo-10H-pyrrolizino[1,2-b]quinoline-6-carbonitrile] | 0.05 to 5 | 0.05 to 5 | < 0.05 | 0.05 to 5 | 0.05 to 5 | 0.05 to 5 |  |  |  |  |  | 
13 | 0.05 to 5 | 1 to 10 | 0.1 to 1 |  | O=C1c2c(nc3ccccc3c2OCCCN2CCOCC2)-c2cccn21 [Compound 663b, 9-(3-morpholinopropoxy)-10H-pyrrolizino[1,2-b]quinolin-10-one] | 0.05 to 5 | 0.05 to 5 | 0.05 to 5 | 0.05 to 5 | 0.05 to 5 | 0.05 to 5 |  |  |  |  |  | 
14 | 0.05 to 5 | 1 to 10 | 10 to 50 |  | O=C1c2c(nc3ccccc3c2OCc2cc(C(F)(F)F)ccc2Cl)-c2cccn21 [Compound 611b, 9-((2-chloro-5-(trifluoromethyl)benzyl)oxy)-10H-pyrrolizino[1,2-b]quinolin-10-one] | 0.05 to 5 | 0.05 to 5 | 0.05 to 5 | 0.05 to 5 | 0.05 to 5 | 0.05 to 5 |  |  |  |  |  | 
15 | 0.05 to 5 | 1 to 10 | 1 to 10 |  | O=C1c2c(n(Cc3cccc(I)c3)c3ccccc3c2=O)-c2cccn21 [Compound 608a, 4-(3-Iodobenzyl)-9H-pyrrolizino[1,2-b]quinoline-9,10(4H)-dione] | < 0.05 | 0.05 to 5 | 0.05 to 5 | 0.05 to 5 | < 0.05 | 0.05 to 5 |  |  |  |  |  | 
16 | 0.05 to 5 | 1 to 10 | 0.1 to 1 |  | O=C1c2c([nH]c3c(C(F)(F)F)cccc3c2=O)-c2cccn21 [Compound 448a, 5-(Trifluoromethyl)-9H-pyrrolizino[1,2-b]quinoline-9,10(4H)-dione] | 0.05 to 5 | 0.05 to 5 | 0.05 to 5 | 0.05 to 5 | 0.05 to 5 | 0.05 to 5 |  |  |  |  |  | 
17 | 0.05 to 5 | 1 to 10 | 1 to 10 |  | O=C1c2c([nH]c3cc(C(F)(F)F)ccc3c2=O)-c2cccn21 [Compound 536a, 6-(Trifluoromethyl)-9H-pyrrolizino[1,2-b]quinoline-9,10(4H)-dione] | 0.05 to 5 | 0.05 to 5 | 0.05 to 5 | 0.05 to 5 | 0.05 to 5 | 0.05 to 5 |  |  |  |  |  | 
